Patent US20110218360A1, “PREPARATION OF RASAGILINE AND SALTS THEREOF” (DR. REDDY'S LABORATORIES LTD., priority 2008, published 2011)
Counter-ions that a name gives are not always drawn. Like-named read-outs stand apart in the source and are kept apart here.

Columns and labels:
[1] = particle size distribution after micronisation
From the text: (§1) The D10, D50, and D90 values are useful for indicating a particle size distribution. D90 refers to 90 volume percent of the particles having a size smaller than the specified value. Likewise D10 refers to 10 volume percent of the particles having a size smaller than the specified value. D50 refers to 50 volume percent of the particles having a size smaller than the specified value. Methods for determining D10, D50 and D90 include laser diffraction, such as using Malvern equipment (from Malvern Instruments Limited, Malvern, Worcestershire, United Kingdom).

[2] = for D10 / D50 / D90: storage at 25±2° C., relative humidity 65±5%; for change of particle size distribution / agglomerate formation on storage: ambient storage, up to 18 days, exposure to atmosphere
From the text: as §1
Rasgiline mesylate (6 g) prepared according to Example 28 is divided into three parts for storage under ambient conditions (temperature=25±2° C.; relative humidity=65±5%): unpackaged (P-I); in closed packages with a nitrogen atmosphere (P-II); and in closed packages with an air atmosphere (P-III). The samples are analyzed for particle size distribution on the 5th and 18th days.

## C#CCN[C@@H]1CCc2ccccc21 [Example 31, Rasagiline mesylate]
[1]
  D10: 2.404 μm
  D50: 146.957 μm
  D90: 608.570 μm

## C#CCN[C@@H]1CCc2ccccc21 [P-III, Rasgiline mesylate]
[2]; 5th day
  D10: 1.182 μm
  D50: 3.566 μm
  D90: 120.731 μm
[2]; 18th day
  D10: 1.365 μm
  D50: 4.171 μm
  D90: 144.617 μm

## C#CCN[C@@H]1CCc2ccccc21 [Example 32, Rasagiline mesylate]
[1]
  D10: 0.991 μm
  D50: 3.093 μm
  D90: 6.540 μm
  D[4,3]: 3.496 μm

## C#CCN[C@@H]1CCc2ccccc21 [Example 28, Rasagiline mesylate]
[1]
  D10: 0.663 μm
  D50: 1.592 μm
  D90: 3.219 μm
  D[4,3]: 1.792 μm

## C#CCN[C@@H]1CCc2ccccc21 [Example 30, Rasagiline mesylate]
[1]
  D10: 0.761 μm
  D50: 2.346 μm
  D90: 4.981 μm
  D[4,3]: 2.650 μm

## C#CCN[C@@H]1CCc2ccccc21 [Example 27, Rasagiline mesylate]
[1]
  D10: 0.779 μm
  D50: 2.285 μm
  D90: 5.517 μm

## C#CCN[C@@H]1CCc2ccccc21 [rasagiline mesylate, (1R)—N-prop-2-ynyl-2,3-dihydro-1H-inden-1-amine methanesulfonate, reference compound]
[2]; methanesulfonate
  change of particle size distribution / agglomerate formation on storage: susceptible to agglomerate formation

## C#CCN[C@@H]1CCc2ccccc21 [P-II, Rasgiline mesylate]
[2]
  change of particle size distribution / agglomerate formation on storage: substantially unchanged
[2]; 5th day
  D10: 0.892 μm
  D50: 2.859 μm
  D90: 5.524 μm
[2]; 18th day
  D10: 1.065 μm
  D50: 3.227 μm
  D90: 6.282 μm

## C#CCN[C@@H]1CCc2ccccc21 [P-I, Rasgiline mesylate]
[2]; 5th day
  D10: 1.319 μm
  D50: 4.216 μm
  D90: 151.379 μm
